# Reference: patent US20140128352A1, “COMPOUNDS AND METHODS FOR MODULATING MITOCHONDRIAL METABOLISM AND REACTIVE OXYGEN SPECIES PRODUCTION” (Buck Institute for Research on Aging, priority 2012, published 2014)
# Where two headings read alike, the source gives them in different places.
# Experiments:
# [1] = test system: mitochondrial membrane potential (ΔΨm); test: Membrane potential (ΔΨm) counterscreen with TMRM; settings: malate, nigericin
# [2] = biological target: T1, outer ubiquinone binding site of complex III (IIIQO) (Rattus norvegicus, UniProt P00159+P20788); test: High-throughput screen: ROS production from outer ubiquinone binding site of complex III (IIIQO); type: biochemical
# T1 construct: freshly isolated muscle mitochondria were assayed; from tissue; host or cells: rat skeletal muscle mitochondria (Wistar, Harlan Laboratories)
# [3] = biological target: T2, flavin binding site of complex I (IF) (Rattus norvegicus, UniProt Q5XIH3); test: High-throughput screen: ROS production from flavin binding site of complex I (IF); type: biochemical
# T2 construct: freshly isolated muscle mitochondria were assayed; from tissue; host or cells: rat skeletal muscle mitochondria (Wistar, Harlan Laboratories)
# [4] = test system: ubiquinone binding site of complex I (IQ); test: High-throughput screen: ROS production from ubiquinone binding site of complex I (IQ), isolated skeletal muscle mitochondria; type: biochemical, rat; settings: for IQ: percent change in ROS from DMSO controls; for % Reduction in ROS production (IQ): Table 2, 5 mM succinate, compounds 2.5 μM, percent change from DMSO, positive control −100%
# [5] = biological target: T3, succinate dehydrogenase/complex II (SDH) (Rattus norvegicus, UniProt P21913+Q641Z9+Q6PCT8+Q920L2); test: High-throughput screen: ROS production from succinate dehydrogenase/complex II (SDH); type: biochemical; settings: for inhibition at 2.5 µM / SDH: percent change in ROS from DMSO controls; for % Reduction in ROS Production (SDH): Table 5, 15 μM palmitoyl carnitine, 2.5 μM antimycin A, 2 μM myxothiazol, compounds 2.5 μM, percent change from DMSO
# T3 construct: freshly isolated muscle mitochondria were assayed; from tissue; host or cells: rat skeletal muscle mitochondria (Wistar, Harlan Laboratories)
# [6] = biological target: T4, glycerol-3-phosphate dehydrogenase (GPDH) (Rattus norvegicus, UniProt P35571); test: High-throughput screen: ROS production from glycerol-3-phosphate dehydrogenase (GPDH); type: biochemical; set-up: inhibition: dose or concentration left out as unconfirmed; settings: for inhibition at 2.5 µM: Table 6, 25 mM glycerol phosphate, rotenone, antimycin A, malonate, myxothiazol, compounds 2.5 μM, scaled to IQ positive controls, read-out: % Reduction in ROS Production (GPDH); for inhibition / GPDH: percent change in ROS from DMSO controls
# T4 construct: The activity of GPDH in intact mitochondria (0.3 mg/mL) was measured; from tissue; host or cells: rat skeletal muscle mitochondria (Wistar, Harlan Laboratories)
# T4 sequence (P35571 43-727): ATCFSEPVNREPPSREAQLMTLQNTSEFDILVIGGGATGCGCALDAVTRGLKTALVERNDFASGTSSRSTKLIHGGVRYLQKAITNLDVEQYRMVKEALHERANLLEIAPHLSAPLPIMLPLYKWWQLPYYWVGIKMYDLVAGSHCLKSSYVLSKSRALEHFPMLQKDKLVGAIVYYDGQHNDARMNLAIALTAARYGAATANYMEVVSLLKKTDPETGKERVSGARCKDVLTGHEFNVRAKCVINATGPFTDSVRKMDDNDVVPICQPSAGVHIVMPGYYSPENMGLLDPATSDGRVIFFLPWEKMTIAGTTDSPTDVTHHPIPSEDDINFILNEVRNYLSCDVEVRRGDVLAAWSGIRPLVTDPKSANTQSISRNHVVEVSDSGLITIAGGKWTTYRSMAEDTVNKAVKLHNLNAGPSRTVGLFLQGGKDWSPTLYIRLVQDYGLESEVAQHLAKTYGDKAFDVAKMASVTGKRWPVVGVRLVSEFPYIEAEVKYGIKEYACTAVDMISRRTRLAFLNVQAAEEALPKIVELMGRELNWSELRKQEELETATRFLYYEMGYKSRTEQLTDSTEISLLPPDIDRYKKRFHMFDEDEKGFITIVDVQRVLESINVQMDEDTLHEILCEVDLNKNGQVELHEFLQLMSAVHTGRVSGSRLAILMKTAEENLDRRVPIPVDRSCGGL
# [7] = Table 7, percent change in ROS from DMSO controls, read-out: IIIQO
# [8] = Table 8, percent change in ROS from DMSO controls
# [9] = Table 9, percent change in ROS from DMSO controls, read-out: IIIQo
# [10] = Table 7, percent change in ROS from DMSO controls, read-out: IF
# [11] = Table 9, percent change in ROS from DMSO controls
# [12] = Table 7, percent change in ROS from DMSO controls
# [13] = Table 8, percent change in ROS from DMSO controls, read-out: IIIQO
# [14] = Table 3, 5 mM glutamate, 5 mM malate, 4 μM rotenone, compounds 2.5 μM, percent change from DMSO, positive control −100%, read-out: % Reduction in ROS production (IF)
# [15] = Table 8, percent change in ROS from DMSO controls, read-out: IF
# [16] = Table 4, 5 mM succinate, 4 μM rotenone, 2.5 μM antimycin A, compounds 2.5 μM, percent change from DMSO, read-out: % Reduction in ROS production (IIIQO)
# T3 sequence (Q920L2 35-656): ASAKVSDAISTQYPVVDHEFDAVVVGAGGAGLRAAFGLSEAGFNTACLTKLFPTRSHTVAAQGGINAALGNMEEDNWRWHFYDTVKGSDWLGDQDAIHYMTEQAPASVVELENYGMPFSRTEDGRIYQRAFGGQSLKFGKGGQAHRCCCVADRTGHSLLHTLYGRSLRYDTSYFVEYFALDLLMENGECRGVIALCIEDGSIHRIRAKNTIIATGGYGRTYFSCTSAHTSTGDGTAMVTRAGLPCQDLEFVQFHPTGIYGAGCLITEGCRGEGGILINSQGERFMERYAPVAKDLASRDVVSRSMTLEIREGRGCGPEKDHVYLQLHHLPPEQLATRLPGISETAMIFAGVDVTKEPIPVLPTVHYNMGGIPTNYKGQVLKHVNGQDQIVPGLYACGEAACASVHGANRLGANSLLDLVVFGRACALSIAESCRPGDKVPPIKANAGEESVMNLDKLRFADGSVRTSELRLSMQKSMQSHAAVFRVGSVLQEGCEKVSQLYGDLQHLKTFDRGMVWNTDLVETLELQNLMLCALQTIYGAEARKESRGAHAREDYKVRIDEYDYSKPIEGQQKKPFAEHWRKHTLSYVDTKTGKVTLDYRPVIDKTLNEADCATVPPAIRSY
# T3 sequence (P21913 31-282): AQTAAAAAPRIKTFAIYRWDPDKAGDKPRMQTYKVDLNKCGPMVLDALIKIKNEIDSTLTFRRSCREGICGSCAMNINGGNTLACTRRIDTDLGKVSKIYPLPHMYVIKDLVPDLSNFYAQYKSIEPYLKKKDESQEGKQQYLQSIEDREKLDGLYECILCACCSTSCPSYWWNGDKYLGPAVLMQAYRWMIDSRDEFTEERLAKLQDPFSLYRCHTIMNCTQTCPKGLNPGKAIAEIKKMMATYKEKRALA
# T3 sequence (Q641Z9 30-169 limits assumed): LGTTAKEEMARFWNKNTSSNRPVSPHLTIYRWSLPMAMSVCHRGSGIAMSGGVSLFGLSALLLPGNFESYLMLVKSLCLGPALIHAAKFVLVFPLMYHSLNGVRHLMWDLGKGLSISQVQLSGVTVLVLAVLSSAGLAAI
# T3 sequence (Q6PCT8 57-159): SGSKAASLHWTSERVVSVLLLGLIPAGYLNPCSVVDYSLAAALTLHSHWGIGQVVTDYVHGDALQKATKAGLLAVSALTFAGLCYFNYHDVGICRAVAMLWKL
# T2 sequence (Q5XIH3 21-464 limits assumed, one chain of several): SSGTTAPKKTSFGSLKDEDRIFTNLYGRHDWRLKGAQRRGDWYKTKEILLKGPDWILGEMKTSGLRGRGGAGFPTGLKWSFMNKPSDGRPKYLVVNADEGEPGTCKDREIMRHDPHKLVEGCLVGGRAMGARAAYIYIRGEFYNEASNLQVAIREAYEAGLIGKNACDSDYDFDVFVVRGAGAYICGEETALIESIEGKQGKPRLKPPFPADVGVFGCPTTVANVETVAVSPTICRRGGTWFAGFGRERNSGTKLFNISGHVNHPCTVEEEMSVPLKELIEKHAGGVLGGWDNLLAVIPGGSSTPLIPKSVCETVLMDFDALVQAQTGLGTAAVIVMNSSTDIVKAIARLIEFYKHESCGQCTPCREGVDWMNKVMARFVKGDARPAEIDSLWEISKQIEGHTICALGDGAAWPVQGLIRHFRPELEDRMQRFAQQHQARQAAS
structure (smiles),measurement,setting,value
O=C(O)/C=C/C(=O)Nc1ccc(/C=C/c2ccccc2)cc1 [Compound 49],ΔΨm,"[1]; Table 8, glutamate",−0.3
same,ΔΨm,"[1]; Table 9, glutamate",−0.3
same,inhibition at 2.5 µM,[2]; [7],-10%
same,IIIQO,[2]; [8],10.0
same,inhibition at 2.5 µM,[2]; [9],-10%
same,inhibition at 2.5 µM,[3]; [10],-1%
same,IF,[3]; [8],1.0
same,IF,[3]; [11],1.0
same,IQ,[4]; Table 7,1.7
same,IQ,[4]; Table 8,1.7
same,IQ,[4]; Table 9,1.7
same,inhibition at 2.5 µM,[5]; Table 7,1%
same,SDH,[5]; Table 8,−1.0
same,SDH,[5]; Table 9,−1.0
same,inhibition at 2.5 µM,[6],12.7%
same,inhibition,[6]; Table 7,12.7%
same,GPDH,[6]; Table 8,−12.7
same,GPDH,[6]; Table 9,−12.7
Cl.OC12CCCCC1C(c1cccc(Cl)c1)NCC2 (centres unmarked) [Compound 51],ΔΨm,"[1]; Table 8, glutamate",0.9
same,ΔΨm,"[1]; Table 9, glutamate",0.9
same,inhibition at 2.5 µM,[2]; [7],9.8%
same,IIIQO,[2]; [8],−9.8
same,inhibition at 2.5 µM,[2]; [9],9.8%
same,inhibition at 2.5 µM,[3]; [10],-5.5%
same,IF,[3]; [8],5.5
same,IF,[3]; [11],5.5
same,IQ,[4]; Table 7,−2.8
same,IQ,[4]; Table 8,−2.8
same,IQ,[4]; Table 9,−2.8
same,inhibition at 2.5 µM,[5]; Table 7,1.8%
same,SDH,[5]; Table 8,−1.8
same,SDH,[5]; Table 9,−1.8
same,inhibition,[6]; Table 7,12%
same,GPDH,[6]; Table 8,−12.0
same,GPDH,[6]; Table 9,−12.0
Oc1nnc(Cc2ccncc2)c2ccccc12 [Compound 72],ΔΨm,"[1]; Table 8, glutamate",1.0
same,ΔΨm,"[1]; Table 9, glutamate",1.0
same,inhibition at 2.5 µM,[2]; [7],-5.4%
same,IIIQO,[2]; [8],5.4
same,inhibition at 2.5 µM,[2]; [9],-5.4%
same,inhibition at 2.5 µM,[3]; [10],-2.6%
same,IF,[3]; [8],2.6
same,IF,[3]; [11],2.6
same,IQ,[4]; Table 7,0.4
same,IQ,[4]; Table 8,0.4
same,IQ,[4]; Table 9,0.4
same,% Reduction in ROS Production (SDH),[5],−27.4%
same,inhibition at 2.5 µM,[5]; Table 7,27.4%
same,SDH,[5]; Table 8,−27.4
same,SDH,[5]; Table 9,−27.4
same,inhibition,[6]; Table 7,-1.7%
same,GPDH,[6]; Table 8,1.7
same,GPDH,[6]; Table 9,1.7
O=C(Nc1ccccc1[N+](=O)[O-])c1cccc(S(=O)(=O)Nc2ccccc2)c1 [Compound 73],ΔΨm,"[1]; Table 8, glutamate",−0.2
same,ΔΨm,"[1]; Table 9, glutamate",−0.2
same,IIIQO,[2]; [12],−1.3
same,IIIQO,[2]; [8],−1.3
same,IIIQO,[2]; [11],−1.3
same,IF,[3]; [12],−0.7
same,IF,[3]; [8],−0.7
same,IF,[3]; [11],−0.7
same,IQ,[4]; Table 7,−4.6
same,IQ,[4]; Table 8,−4.6
same,IQ,[4]; Table 9,−4.6
same,% Reduction in ROS Production (SDH),[5],−26.9%
same,SDH,[5]; Table 7,−26.9
same,SDH,[5]; Table 8,−26.9
same,SDH,[5]; Table 9,−26.9
same,GPDH,[6]; Table 7,−2.4
same,GPDH,[6]; Table 8,−2.4
same,GPDH,[6]; Table 9,−2.4
COc1ccc(C2C(C#N)=C(N)Oc3c2c(=O)oc2ccccc32)cc1O (centres unmarked) [Compound 74],ΔΨm,"[1]; Table 8, glutamate",0.8
same,ΔΨm,"[1]; Table 9, glutamate",0.8
same,inhibition at 2.5 µM,[2]; [7],7.6%
same,IIIQO,[2]; [8],−7.6
same,inhibition at 2.5 µM,[2]; [9],7.6%
same,inhibition at 2.5 µM,[3]; [10],-0.4%
same,IF,[3]; [8],0.4
same,IF,[3]; [11],0.4
same,IQ,[4]; Table 7,−0.7
same,IQ,[4]; Table 8,−0.7
same,IQ,[4]; Table 9,−0.7
same,% Reduction in ROS Production (SDH),[5],−20.9%
same,inhibition at 2.5 µM,[5]; Table 7,20.9%
same,SDH,[5]; Table 8,−20.9
same,SDH,[5]; Table 9,−20.9
same,inhibition,[6]; Table 7,3.5%
same,GPDH,[6]; Table 8,−3.5
same,GPDH,[6]; Table 9,−3.5
COc1ccc(NC(=S)NC(=O)c2ccco2)cc1 [Compound 75],ΔΨm,"[1]; Table 8, glutamate",−2
same,inhibition at 2.5 µM,[2]; [13],-3%
same,inhibition at 2.5 µM,[3]; [14],83%
same,inhibition at 2.5 µM,[3]; [15],83%
same,% Reduction in ROS production (IQ),[4],−50%
same,IQ,[4]; Table 8,−50
same,% Reduction in ROS Production (SDH),[5],−22%
same,inhibition at 2.5 µM,[5]; Table 8,22%
same,inhibition at 2.5 µM,[6],16%
same,inhibition,[6]; Table 8,16%
O=C(Nc1nn[nH]n1)C1CCCCC1 [Compound 76],ΔΨm,"[1]; Table 8, glutamate",0
same,inhibition at 2.5 µM,[2]; [13],0%
same,inhibition at 2.5 µM,[3]; [14],34%
same,inhibition at 2.5 µM,[3]; [15],34%
same,% Reduction in ROS production (IQ),[4],−24%
same,IQ,[4]; Table 8,−24
same,inhibition at 2.5 µM,[5]; Table 8,-3%
same,inhibition,[6]; Table 8,0%
c1ccc(C2CCC(Nc3ccc4c(c3)OCO4)CC2)cc1 (centres unmarked) [Compound 77],ΔΨm,"[1]; Table 8, glutamate",1
same,inhibition at 2.5 µM,[2]; [16],15%
same,inhibition at 2.5 µM,[2]; [13],15%
same,inhibition at 2.5 µM,[3]; [15],6%
same,% Reduction in ROS production (IQ),[4],−18%
same,IQ,[4]; Table 8,−18
same,inhibition at 2.5 µM,[5]; Table 8,0%
same,inhibition,[6]; Table 8,-1%
Clc1ccc(C(NC2CCN(Cc3ccccc3)CC2)c2ccccc2)cc1 (centres unmarked) [Compound 78],ΔΨm,"[1]; Table 8, glutamate",−1
same,inhibition at 2.5 µM,[2]; [16],30%
same,inhibition at 2.5 µM,[2]; [13],30%
same,inhibition at 2.5 µM,[3]; [14],37%
same,inhibition at 2.5 µM,[3]; [15],37%
same,IQ,[4]; Table 8,2
same,inhibition at 2.5 µM,[5]; Table 8,5%
same,inhibition,[6]; Table 8,6%
CCC1CCCCN1C/C=C/c1ccc(N(C)C)cc1 (centres unmarked) [Compound 80],ΔΨm,"[1]; Table 8, glutamate",0
same,inhibition at 2.5 µM,[2]; [16],12%
same,inhibition at 2.5 µM,[2]; [13],12%
same,inhibition at 2.5 µM,[3]; [14],23%
same,inhibition at 2.5 µM,[3]; [15],23%
same,IQ,[4]; Table 8,0
same,inhibition at 2.5 µM,[5]; Table 8,-4%
same,inhibition at 2.5 µM,[6],11%
same,inhibition,[6]; Table 8,11%
CN(C)c1ccc(C(=C2CN3CCC2CC3)c2ccc(N(C)C)cc2)cc1 [Compound 81],ΔΨm,"[1]; Table 8, glutamate",−1
same,inhibition at 2.5 µM,[2]; [13],0%
same,inhibition at 2.5 µM,[3]; [15],49%
same,IQ,[4]; Table 8,2
same,inhibition at 2.5 µM,[5]; Table 8,1%
same,inhibition,[6]; Table 8,13%
Cc1cc(OCC(O)CN(Cc2ccccc2)C(C)(C)C)ccc1[N+](=O)[O-] (centres unmarked) [Compound 82],ΔΨm,"[1]; Table 8, glutamate",0
same,IIIQO,[2]; [8],−10
same,% Reduction in ROS production (IF),"[3]; Table 3, 5 mM glutamate, 5 mM malate, 4 μM rotenone, compounds 2.5 μM, percent change from DMSO, positive control −100%",−34%
same,IF,[3]; [8],−34
same,IQ,[4]; Table 8,−2
same,% Reduction in ROS Production (SDH),[5],−35%
same,SDH,[5]; Table 8,−35
same,GPDH,[6]; Table 8,0
